“And” between values parts separate entries of the source, which are not always exact repeats. Identical values can stand only once. Like-named read-outs stand apart in the source and are kept apart here.
Assays:
[1] = Cytotoxicity MTT assay in MT4 cells; format: cell-based; details: human
HIV-1KIZ011 (CRF07_BC) [2] = experiment: microbe, parasite or virus in culture; details: Human immunodeficiency virus 1, PBMC
[3] = Cytotoxicity MTT assay in C8166 cells; format: cell-based; details: human
HIV-1IIIB [4] = tested on: HIV-1IIIB
HIV-1A17 [5] = experiment: microbe, parasite or virus in culture; details: Human immunodeficiency virus 1, C8166
[6] = Cytotoxicity MTT assay in PBMCs; format: cell-based; details: human, peripheral blood mononuclear cells (PBMCs), PBMC
HIV-1WAN (CRF01_AE) [7] = experiment: microbe, parasite or virus in culture; details: Human immunodeficiency virus 1, PBMC
HIV-1A17 [8] = details: HIV-1A17, C8166, p24
[9] = tested on: clinical isolated strains; experiment: microbe, parasite or virus in culture; format: cell-based; details: Human immunodeficiency virus 1, read-out: EC50 range
HIV-1IIIB [10] = experiment: HIV-1IIIB-induced cytopathic effect (syncytia counting) in C8166 cells
HIV-1IIIB [11] = experiment: qPCR determination of Late-RT, 2-LTR and Alu-LTR in infected C8166 cells; format: cell-based
HIV-1IIIB [12] = experiment: microbe, parasite or virus in culture; format: cell-based; details: Human immunodeficiency virus 1, MT4, MTT
HIV-1_4755-5 [13] = details: HIV-1_4755-5, C8166, p24
drug-resistant strains = experiment: microbe, parasite or virus in culture; format: cell-based; details: Human immunodeficiency virus 1; panel of drug-resistant strains; read-out: EC50 range
HIV-1TC-1 (CRF01_AE) [14] = details: HIV-1TC-1, PBMC, p24
[15] = design: method as in CTR20240167; details: healthy adults, single-dose administration; ref CTR20240167; cited from earlier work
HIV-1IIIB [16] = experiment: microbe, parasite or virus in culture; details: Human immunodeficiency virus 1, C8166, HIV-1IIIB
HIV-1TC-1 (CRF01_AE) [17] = experiment: microbe, parasite or virus in culture; details: Human immunodeficiency virus 1, PBMC
NL4-3 = experiment: microbe, parasite or virus in culture; format: cell-based; details: Human immunodeficiency virus 1, NL43; NL4-3, p24
[18] = biological target: HIV-1 mutant N155H integrase (Human immunodeficiency virus type 1 group M subtype B, UniProt P04585, N1302H); experiment: biochemical; details: HIV-1N155H integrase, mean n = 4
[19] = tested on: pNL4-3gp41(36G) V38A, N42T; details: C8166, p24
HIV-1DRACC017 = experiment: microbe, parasite or virus in culture; format: cell-based; details: Human immunodeficiency virus 1; HIV-1DRACC017, p24
HIV-1_4755-5 [20] = experiment: microbe, parasite or virus in culture; details: Human immunodeficiency virus 1, C8166
HIV-1WAN (CRF01_AE) [21] = details: PBMC, p24
HIV-1IIIB [22] = experiment: Combined antiviral activity assay (p24 ELISA, CompuSyn); format: cell-based
HIV-1KIZ011 (CRF07_BC) [23] = details: HIV-1KIZ011, PBMC, p24
NL4-3IN-R263K = experiment: microbe, parasite or virus in culture; format: cell-based; details: Human immunodeficiency virus 1; read-out: EC50

`C[C@H]1N2C(=O)c3c(O)c(=O)c(C(=O)NCc4ccc(F)cc4F)cn3C[C@@H]2OCC12CC2` [ACC017] showed a CC50 at 3 d [1] of 24800 ± 80 nM, an EC50 (HIV-1KIZ011 (CRF07_BC) [2]) of 0.33 ± 0.06 nM and a CC50 at 3 d [3] of 20370 ± 100 nM. For the same molecule, the “SI (CC50/EC50)” value (HIV-1IIIB [4]; C8166, p24) was 34,525.42, the “Fold increase of EC50 in the presence of 20% human serum” value (HIV-1IIIB [4]; C8166, p24, with vs without 20% human serum) was 14.03 fold and the EC50 (HIV-1A17 [5]) was 8.51 ± 0.25 nM. The CC50 at 7 d [6] was 15200 nM, the EC50 (HIV-1WAN (CRF01_AE) [7]) was 1.78 ± 0.29 nM and the “SI (CC50/EC50)” value (HIV-1A17 [8]) was 2393.65. The EC50 [9] was 0.11 to 1.78 nM, the “SI (CC50/EC50)” value (HIV-1IIIB [10]; HIV-1IIIB, C8166, syncytia) was 34,525.42 and the EC50 (HIV-1IIIB [10]; Human immunodeficiency virus 1, C8166) was 0.59 ± 0.09 nM. The “Late-RT level versus positive control (PC) group” value (HIV-1IIIB [11]; C8166, HIV-1IIIB MOI 0.5, 100 nM ACC017, 4-8 h) was “no significant difference compared with the PC group”, the “2-LTR level (nuclear entry)” value (HIV-1IIIB [11]; C8166, HIV-1IIIB MOI 0.5, 100 nM ACC017, 8, 12, 24 h) was “unable to block the nuclear entry process” and the “Alu-LTR level (integrated provirus)” value (HIV-1IIIB [11]; C8166, HIV-1IIIB MOI 0.5, 100 nM ACC017, 24 h, nested PCR) was “significantly reduced”. For the same molecule, the EC50 (HIV-1IIIB [12]) was 0.05147 ± 2e-05 nM, the “SI (CC50/EC50)” value (HIV-1_4755-5 [13]) was 2233.55 and the EC50 (drug-resistant strains) was 0.34 to 9.12 nM. For the same molecule, the “SI (CC50/EC50)” value (HIV-1TC-1 (CRF01_AE) [14]) was 138,545.45, the Safety and tolerability [15] was “favorable safety and tolerability profile” and the EC50 (HIV-1IIIB [16]; C8166, p24 (Table 1)) was 0.59 ± 0.09 nM. For the same molecule, the EC50 (HIV-1IIIB [16]; C8166, p24, 20% human serum) was 8.28 ± 2.02 nM, the EC50 (HIV-1IIIB [16]; p24 (Table 4, resistance study)) was 1.25 ± 0.48 nM and the EC50 (HIV-1TC-1 (CRF01_AE) [17]) was 0.11 ± 0.06 nM. It also gave an EC50 (NL4-3) of 1.7 ± 0.47 nM, an IC50 [18] of 9.91 nM and an EC50 [19] of 0.34 ± 0.09 nM. The “SI (CC50/EC50)” value [19] was 59,911.76, the EC50 (HIV-1DRACC017) was over 5000 nM and the EC50 (HIV-1_4755-5 [20]) was 9.12 ± 2.31 nM. The “SI (CC50/EC50)” value (HIV-1WAN (CRF01_AE) [21]) was 8561.80, the “DRI Value ED75” value (HIV-1IIIB [22]; combination ACC017 + 3TC) was 5.25 and the “DRI Value ED90” value (HIV-1IIIB [22]; combination ACC017 + 3TC) was 9.07. The “DRI Value ED95” value (HIV-1IIIB [22]; combination ACC017 + 3TC) was 13.15, the “DRI Value ED75” value (HIV-1IIIB [22]; combination ACC017 + ACC007) was 4.07 and the “DRI Value ED90” value (HIV-1IIIB [22]; combination ACC017 + ACC007) was 6.48. The “DRI Value ED95” value (HIV-1IIIB [22]; combination ACC017 + ACC007) was 8.97, the “DRI Value ED75” value (HIV-1IIIB [22]; combination ACC017 + ACC017) was 1.77 and 3.46 and the “DRI Value ED90” value (HIV-1IIIB [22]; combination ACC017 + ACC017) was 2.06 and 2.77. For the same molecule, the “DRI Value ED95” value (HIV-1IIIB [22]; combination ACC017 + ACC017) was 2.32 and 2.42, the “DRI Value ED75” value (HIV-1IIIB [22]; combination ACC017 + DTG) was 2.89 and the “DRI Value ED90” value (HIV-1IIIB [22]; combination ACC017 + DTG) was 2.45. The “DRI Value ED95” value (HIV-1IIIB [22]; combination ACC017 + DTG) was 2.27, the “DRI Value ED75” value (HIV-1IIIB [22]; combination ACC017 + FTC + TAF) was 4.62 and the “DRI Value ED90” value (HIV-1IIIB [22]; combination ACC017 + FTC + TAF) was 6.79. For the same molecule, the “DRI Value ED95” value (HIV-1IIIB [22]; combination ACC017 + FTC + TAF) was 9.05, the “SI (CC50/EC50)” value (HIV-1KIZ011 (CRF07_BC) [23]) was 46,181.82 and the EC50 (NL4-3IN-R263K) was 28.1 ± 4.22 nM.

With `CC(C)OC(=O)[C@H](C)N[P@](=O)(CO[C@H](C)Cn1cnc2c(N)ncnc21)Oc1ccccc1` [TAF, Tenofovir alafenamide] the “DRI Value ED75” value (HIV-1IIIB [22]; combination ACC017 + FTC + TAF) was 4.78, the “DRI Value ED90” value (HIV-1IIIB [22]; combination ACC017 + FTC + TAF) was 6.99 and the “DRI Value ED95” value (HIV-1IIIB [22]; combination ACC017 + FTC + TAF) was 8.96. For the same molecule, the “DRI Value ED75” value (HIV-1IIIB [22]; combination DTG + FTC + TAF) was 4.40, the “DRI Value ED90” value (HIV-1IIIB [22]; combination DTG + FTC + TAF) was 6.33 and the “DRI Value ED95” value (HIV-1IIIB [22]; combination DTG + FTC + TAF) was 8.18.

In the case of `Nc1nc(=O)n([C@@H]2CS[C@H](CO)O2)cc1F` [FTC, Emtricitabine], the “DRI Value ED75” value (HIV-1IIIB [22]; combination ACC017 + FTC + TAF) is reported as 7.82, the “DRI Value ED90” value (HIV-1IIIB [22]; combination ACC017 + FTC + TAF) is reported as 12.57 and the “DRI Value ED95” value (HIV-1IIIB [22]; combination ACC017 + FTC + TAF) is reported as 17.41. For the same molecule, the “DRI Value ED75” value (HIV-1IIIB [22]; combination DTG + FTC + TAF) was 7.15, the “DRI Value ED90” value (HIV-1IIIB [22]; combination DTG + FTC + TAF) was 12.20 and the “DRI Value ED95” value (HIV-1IIIB [22]; combination DTG + FTC + TAF) was 17.77.

From PMC12846677 (Viruses, 2025)
